Measurements taken from US20190225650A1, “PEPTIDOMIMETIC MACROCYCLES AND USE THEREOF IN REGULATING HIF1ALPHA” (AILERON THERAPEUTICS, INC., priority 2013, published 2019).
Bridge positions count the residues as written; N and C are the ends. Square brackets hold non-standard residues; d marks the D form. Peptide text beside a SMILES is read from it. S5 = C=CCCC[C@](C)(N)C(=O)O; Nle = CCCC[C@H](N)C(=O)O; Dap = NC[C@H](N)C(=O)O

Test system: HRE-bla ME-180 cells
Assay: Reporter gene assay (HRE-bla ME-180 HIF reporter, GeneBLAzer)
Assay type: cell-based, human
Conditions: for EC50: 24 hour normoxia
Procedure: The following reagents were used:
• DMEM+GutaMAX: (#10569044, Invitrogen) • Black clear bottom plates: (#3603, Costar) • HRE-bla-ME-180 cell line: (#K1644, Invitrogen) • Gene-Blazer reagent & protocol: (#K1096, Invitrogen) • Plate reader: Biotek Synergy 2 • Chetomin: (C9623, Sigma)
4 hours prior to experiment: HRE-bla ME-180 cells were seeded at a density of 20,000 cells/well in a volume of 180 μl in black clear bottom 96-well plates. 180 μl of assay medium was added to the cell-free control wells. Incubation was conducted at 37° C., 5% CO2 for 4 hours.
Diluted chetomin was used as a positive control. Chetomin was diluted in 100% DMSO to a 10 mM stock concentration. A 1 mM stock of chetomin was prepared in 100% DMSO. Then the 1 mM chetomin stock was serially diluted in 1:4 in 100% DMSO. Finally, 50, 12.5, 3.125, 0.78, 0.2, 0.05 μM stock of chetomin in 5% DMSO/water were prepared by adding 114 μL water+6 μL chetomin in DMSO.
Test peptides were diluted before use. The test peptides were diluted in 100% DMSO to a 10 mM stock concentration. Then each 10 mM peptide stock was diluted in 1:3 in 100% DMSO. Finally, 300, 100, 33.3, 11.1, 3.7, 1.2 μM stock of each peptide in 5% DMSO/water were prepared by adding 129.2 μL water+4 μL peptide in DMSO.
20 μl of peptide, chetomin dilution, or DMSO/water control were added to the appropriate wells of a plate to achieve 200 μL final volumes in 0.3% DMSO/media. The plate was first incubated for 18-20 hours in normoxia incubator (37° C. in humidified 5% CO2, 20% O2 atmosphere). Then the plate was transferred to hypoxia incubator for 24 hours (37° C. in humidified 5% CO2, 1% O2 atmosphere)
6× LiveBLAzer™-FRET B/G (CCF4-AM) Substrate Mixture was prepared according to CellSensor™ HRE-bla ME-180 Cell-based Assay Protocol (Invitrogen) and added into each well. Solution A (CCF4-AM) was reconstituted in DMSO to a working concentration of 1 mM, divided in aliquots, and stored at −20° C. The 6× LiveBLAzer-FRET B/G (CCF4-AM) Substrate mixture was prepared by mixing 6 μl of Solution A, 60 μl of Solution B, and 934 μl Solution C.
The plates were removed from incubator and equilibrated to RT for a few minutes. Then 20 μl of 6× Substrate mixture was added to each well. The plates were then incubated at room temperature for 3 hr in the dark and read at 409 Ex/460Em and 409Ex/530Em using the “GeneBlazer-Tungsten with export” program on the Synergy 2.
The average percentage of maximum inhibition was obtained by comparing the peptide treated cells (30 μM) to DMSO vehicle control treated cells. The results are shown in the columns “ME-180 HIF Reporter EC50 (μM) −24 hr normoxia” and “18 h Avg % max inhibition at top conc (HIF Rptr-24 hrsnormoxia) (μM)” of Table 6.

SMILES | EC50 | 18 h Avg % max inhibition at top conc (HIF Rptr-24 hrs normoxia) (μM)
CC[C@H](C)[C@H](NC(=O)[C@H](Cc1ccccc1)NC(C)=O)C(=O)N[C@@H](CC(=O)O)C(=O)N[C@@H](CCC(=O)O)C(=O)N[C@@H](CCC(=O)O)C(=O)N[C@H](C(=O)N[C@@H](CC(C)C)C(=O)N[C@@H](C)C(=O)N[C@@]1(C)CCCC=CCCC[C@@](C)(C(=O)N[C@@H](C)C(=O)N[C@@H](C)C(=O)N[C@@H](CC(C)C)C(=O)N[C@@H](CC(=O)O)C(N)=O)NC(=O)[C@H]([C@@H](C)CC)NC(=O)[C@H](C(C)C)NC(=O)[C@H](CC(C)C)NC1=O)C(C)C [SP-60] (Ac-FIDEEVLA[S5]LVI[S5]AALD-NH2; staple 9-13) | > 30 µM | + (<10: +)
CCCC[C@H](NC(=O)[C@H](CC(C)C)NC(=O)[C@@H](NC(=O)[C@H](CCC(=O)O)NC(=O)[C@H](CCC(=O)O)NC(=O)[C@H](CC(=O)O)NC(=O)[C@@H](NC(=O)[C@H](Cc1ccccc1)NC(C)=O)[C@@H](C)CC)C(C)C)C(=O)N[C@@]1(C)CCCC=CCCC[C@@](C)(C(=O)N[C@@H](CCCC)C(=O)N[C@@H](C)C(=O)N[C@@H](CC(C)C)C(=O)N[C@@H](CC(=O)O)C(=O)N[C@@H](CCCNC(=N)N)C(=O)N[C@H](C(N)=O)[C@@H](C)CC)NC(=O)[C@H]([C@@H](C)CC)NC(=O)[C@H](CCC(=O)O)NC(=O)[C@H](CC(C)C)NC1=O [SP-36] (Ac-FIDEEVL[Nle][S5]LEI[S5][Nle]ALDRI-NH2; staple 9-13) | > 30 µM | + (<10: +)
CCCC[C@H](NC(=O)[C@H](CC(C)C)NC(=O)[C@@H](NC(=O)[C@H](CCC(=O)O)NC(=O)[C@H](CCC(=O)O)NC(=O)[C@H](CC(=O)O)NC(=O)[C@@H](NC(=O)[C@H](Cc1ccccc1)NC(C)=O)[C@@H](C)CC)C(C)C)C(=O)N[C@@]1(C)CCCC=CCCC[C@@](C)(C(=O)N[C@@H](CCCC)C(=O)N[C@@H](C)C(=O)N[C@@H](CCC(=O)O)C(=O)N[C@@H](CC(=O)O)C(=O)N[C@@H](CCCNC(=N)N)C(=O)N[C@H](C(N)=O)[C@@H](C)CC)NC(=O)[C@H]([C@@H](C)CC)NC(=O)[C@H](C(C)C)NC(=O)[C@H](CC(C)C)NC1=O [SP-40] (Ac-FIDEEVL[Nle][S5]LVI[S5][Nle]AEDRI-NH2; staple 9-13) | > 30 µM | + (<10: +)
CCCC[C@H](NC(=O)[C@H](CC(C)C)NC(=O)[C@@H](NC(=O)[C@H](CCC(=O)O)NC(=O)[C@H](CCC(=O)O)NC(=O)[C@H](CC(=O)O)NC(=O)[C@@H](NC(=O)[C@H](Cc1ccccc1)NC(C)=O)[C@@H](C)CC)C(C)C)C(=O)N[C@@]1(C)CCCC=CCCC[C@@](C)(C(=O)N[C@@H](CCCC)C(=O)N[C@@H](C)C(=O)N[C@@H](CC(C)C)C(=O)N[C@@H](CC(=O)O)C(=O)N[C@@H](CCCNC(=N)N)C(=O)N[C@H](C(N)=O)[C@@H](C)CC)NC(=O)[C@H](CN)NC(=O)[C@H](C(C)C)NC(=O)[C@H](CC(C)C)NC1=O [SP-65] (Ac-FIDEEVL[Nle][S5]LV[Dap][S5][Nle]ALDRI-NH2; staple 9-13) | > 30 µM | + (<10: +)
CCCC[C@H](NC(=O)[C@H](CC(C)C)NC(=O)[C@@H](NC(=O)[C@H](CCC(=O)O)NC(=O)[C@H](CCC(=O)O)NC(=O)[C@H](CC(=O)O)NC(=O)[C@@H](NC(=O)[C@H](CCC(=O)O)NC(C)=O)[C@@H](C)CC)C(C)C)C(=O)N[C@@]1(C)CCCC=CCCC[C@@](C)(C(=O)N[C@@H](CCCC)C(=O)N[C@@H](C)C(=O)N[C@@H](CC(C)C)C(=O)N[C@@H](CC(=O)O)C(=O)N[C@@H](CCCNC(=N)N)C(=O)N[C@H](C(N)=O)[C@@H](C)CC)NC(=O)[C@H]([C@@H](C)CC)NC(=O)[C@H](C(C)C)NC(=O)[C@H](CC(C)C)NC1=O [SP-30] (Ac-EIDEEVL[Nle][S5]LVI[S5][Nle]ALDRI-NH2; staple 9-13) | > 30 µM | ++ (≤10 but <25: ++)
CCCC[C@H](NC(=O)[C@H](CC(C)C)NC(=O)[C@H](CC(=O)O)NC(=O)[C@H](CCC(=O)O)NC(=O)[C@H](CCC(=O)O)NC(=O)[C@H](CC(=O)O)NC(=O)[C@@H](NC(=O)[C@H](Cc1ccccc1)NC(C)=O)[C@@H](C)CC)C(=O)N[C@@]1(C)CCCC=CCCC[C@@](C)(C(=O)N[C@@H](CCCC)C(=O)N[C@@H](C)C(=O)N[C@@H](CC(C)C)C(=O)N[C@@H](CC(=O)O)C(=O)N[C@@H](CCCNC(=N)N)C(=O)N[C@H](C(N)=O)[C@@H](C)CC)NC(=O)[C@H]([C@@H](C)CC)NC(=O)[C@H](C(C)C)NC(=O)[C@H](CC(C)C)NC1=O [SP-32] (Ac-FIDEEDL[Nle][S5]LVI[S5][Nle]ALDRI-NH2; staple 9-13) | 15 to 30 µM | +++ (≤25 but <50: +++)

Second part, led by results:

EC50 | SMILES | 18 h Avg % max inhibition at top conc (HIF Rptr-24 hrs normoxia) (μM)
5 to 15 µM | CCCC[C@H](NC(=O)[C@H](CC(C)C)NC(=O)[C@@H](NC(=O)[C@H](CCC(N)=O)NC(=O)[C@H](CCC(=O)O)NC(=O)[C@H](CC(=O)O)NC(=O)[C@@H](NC(=O)[C@H](Cc1ccccc1)NC(C)=O)[C@@H](C)CC)C(C)C)C(=O)N[C@@]1(C)CCCC=CCCC[C@@](C)(C(=O)N[C@@H](CCCC)C(=O)N[C@@H](C)C(=O)N[C@@H](CC(C)C)C(=O)N[C@@H](CC(=O)O)C(=O)N[C@@H](CCCNC(=N)N)C(=O)N[C@H](C(N)=O)[C@@H](C)CC)NC(=O)[C@H]([C@@H](C)CC)NC(=O)[C@H](C(C)C)NC(=O)[C@H](CC(C)C)NC1=O [SP-69] (Ac-FIDEQVL[Nle][S5]LVI[S5][Nle]ALDRI-NH2; staple 9-13) | ++++ (≥50: ++++)
15 to 30 µM | CCCC[C@H](NC(=O)[C@H](CC(C)C)NC(=O)[C@@H](NC(=O)[C@H](CCC(=O)O)NC(=O)[C@H](CCC(=O)O)NC(=O)[C@H](CC(=O)O)NC(=O)[C@@H](NC(=O)[C@H](Cc1ccccc1)NC(C)=O)[C@@H](C)CC)C(C)C)C(=O)N[C@@]1(C)CCCC=CCCC[C@@](C)(C(=O)N[C@@H](CCCC)C(=O)N[C@@H](CCC(=O)O)C(=O)N[C@@H](CC(C)C)C(=O)N[C@@H](CC(=O)O)C(=O)N[C@@H](CCCNC(=N)N)C(=O)N[C@H](C(N)=O)[C@@H](C)CC)NC(=O)[C@H]([C@@H](C)CC)NC(=O)[C@H](C(C)C)NC(=O)[C@H](CC(C)C)NC1=O [SP-39] (Ac-FIDEEVL[Nle][S5]LVI[S5][Nle]ELDRI-NH2; staple 9-13) | +++ (≤25 but <50: +++)
5 to 15 µM | CC[C@H](C)[C@H](NC(=O)[C@H](CCCNC(=N)N)NC(=O)[C@H](CC(=O)O)NC(=O)[C@H](CC(C)C)NC(=O)[C@H](C)NC(=O)[C@H](C)NC(=O)[C@]1(C)CCCC=CCCC[C@](C)(NC(=O)[C@H](C)NC(=O)[C@H](CC(C)C)NC(=O)[C@@H](NC(=O)[C@H](CCC(N)=O)NC(=O)[C@H](CCC(=O)O)NC(=O)[C@H](CC(=O)O)NC(=O)[C@@H](NC(=O)[C@H](Cc2ccccc2)NC(C)=O)[C@@H](C)CC)C(C)C)C(=O)N[C@@H](CC(C)C)C(=O)N[C@@H](C(C)C)C(=O)N[C@@H]([C@@H](C)CC)C(=O)N1)C(N)=O [SP-70] (Ac-FIDEQVLA[S5]LVI[S5]AALDRI-NH2; staple 9-13) | +++ (≤25 but <50: +++)
5 to 15 µM | CCCC[C@H](NC(=O)[C@H](CC(C)C)NC(=O)[C@@H](NC(=O)[C@H](CCC(=O)O)NC(=O)[C@H](CCC(=O)O)NC(=O)[C@H](CC(=O)O)NC(=O)[C@@H](NC(=O)[C@H](Cc1ccccc1)NC(C)=O)[C@@H](C)CC)C(C)C)C(=O)N[C@@]1(C)CCCC=CCCC[C@@](C)(C(=O)N[C@@H](CCCC)C(=O)N[C@@H](C)C(=O)N[C@@H](CC(C)C)C(=O)N[C@@H](CO)C(=O)N[C@@H](CCCNC(=N)N)C(=O)N[C@H](C(N)=O)[C@@H](C)CC)NC(=O)[C@H]([C@@H](C)CC)NC(=O)[C@H](C(C)C)NC(=O)[C@H](CC(C)C)NC1=O [SP-57] (Ac-FIDEEVL[Nle][S5]LVI[S5][Nle]ALSRI-NH2; staple 9-13) | ++++ (≥50: ++++)
